Test results: article PMC5808083, “Carfilzomib resistance due to ABCB1/MDR1 overexpression is overcome by nelfinavir and lopinavir in multiple myeloma” (Leukemia, 2017)
pIC50: −log10 of the molar value. Where two headings read alike, the source gives them in different places.

Columns and labels:
AMO-1 = test: cells; design: species or system AMO-BTZ, AMO-CFZ and AMO-CFZ clones #1 and #7; cell viability, MTS tetrazolium (CellTiter 96 AQueous One Solution), continuous treatment; conditions: Homo sapiens, AMO1, 48 h
Method: (§1) Generation of AMO-CFZ Ub-G67V-GFP cells AMO-CFZ cells were electroporated with a plasmid containing Ub-G76V-GFP [1] (obtained from Nico Dantuma; Addgene plasmid #11941) and subsequently cultured in the presence of selecting antibiotic G418 (500ng/ml, Gibco/Invitrogen, MA, USA). Subclones were obtained using MethoCult (StemCell Technologies, USA) and the clone with highest accumulation of fluorescence after BTZ treatment was chosen for further analysis. Assessment of cell viability Viability of cell lines was determined after 48h of treatment by MTS tetrazolium compound using CellTiter 96® AQueous One Solution) (Promega, WI, USA) according to manufactures protocol. PgP-Glo assay PgP-Glo assay (Promega, WI, USA) was performed according to manufacturer recommendations. Figure 2 Comparison of dose–response of AMO-1 (sensitive) vs AMO-BTZ and AMO-CFZ (resistant) cells treated with PIs (BTZ and CFZ). (a) Residual activity of proteasome subunits visualized by activity-based probe labeling in intact cells after 1 h pulse treatment with indicated PIs. (b) Cell viability was measured after 48 hours of continuous treatment. Corresponding IC50 values are presented in Supplementary Table S2. Figure 7 Sensitivity profile of ABCB1 inhibitors co-treatment with PIs used in the clinic or in clinical development in AMO-1, AMO-BTZ and AMO-CFZ cell lines. […]

AMO-BTZ = system: T1, AMO-BTZ; test: cells; design: species or system AMO-1, AMO-CFZ and AMO-CFZ clones #1 and #7; cell viability, MTS tetrazolium (CellTiter 96 AQueous One Solution), continuous treatment; conditions: Homo sapiens, AMO1, 48 h
T1 construct: AMO-1 derived, bortezomib-adapted
Method: as §1

[1] = system: T2, AMO-CFZ clone #1 (upregulated ABCB1); test: cells; design: species or system AMO-CFZ clones 1 and 7; Cytotoxicity dose-response of myeloma drugs on AMO-CFZ clones with or without ABCB1, IC50; conditions: ABCB1 upregulated clone #1
T2 construct: AMO-1 derived, carfilzomib-adapted, clone 1 CRISPR/Cas9 clone retaining ABCB1 overexpression
Description: (§2) To dissect the role of ABCB1 overexpression for the activity of standard myeloma drugs we compared the cytotoxic effects of such drugs on AMO-CFZ cells with (clone #1) or without such ABCB1 expression (clone 7) (Figure 3c and Supplementary Table S4). To score for good versus poor ABCB1-substrate myeloma drugs, we calculated the ratio of IC50 values between the ABCB1-containing and the ABCB1-deficient clone for each of the myeloma drug. […] (a) Western blot evaluation of the ABCB1 depletion in AMO-CFZ clones obtained by CRISPR/Cas9 genome editing tool. (b) Dose–response of AMO-CFZ clones with depleted ABCB1 to CFZ. Corresponding IC50 values are presented in Supplementary Table S3. (c) Dose–response of selected AMO-CFZ clones 1 and 7 to CFZ and convectional drugs used in the treatment of MM. (d) Dose–response of AMO-CFZ clones 1 and 7 to approved PI or those in clinical development. Corresponding IC50 values are presented in Supplementary Table S4. To directly address the functional role of ABCB1 for CFZ resistance, we eliminated ABCB1 protein in AMO-CFZ cells by CRISPR/Cas9 (for example, clone 7) (Figure 3a). We observed an inverse correlation between the levels of ABCB1 and myeloma cell sensitivity to CFZ (Figure 3b, Supplementary Table S3). […] Overexpressed ABCB1 is therefore a therapeutic target for CFZ-resistant myeloma.

[2] = system: T3, AMO-CFZ clone #7 (depleted ABCB1); test: cells; design: species or system AMO-CFZ clones 1 and 7; Cytotoxicity dose-response of myeloma drugs on AMO-CFZ clones with or without ABCB1, IC50; conditions: ABCB1 depleted clone #7
T3 construct: AMO-1 derived, carfilzomib-adapted, clone 7 ABCB1 depleted by CRISPR/Cas9 (subtotal elimination)
Description: as §2

AMO-CFZ = system: T4, AMO-CFZ; test: cells; design: species or system AMO-1, AMO-BTZ, AMO-CFZ and AMO-CFZ clones #1 and #7; cell viability, MTS tetrazolium (CellTiter 96 AQueous One Solution), continuous treatment; conditions: Homo sapiens, AMO1, 48 h; for IC50: PI alone
T4 construct: AMO-1 derived, carfilzomib-adapted, ABCB1 overexpressing
Method: (§3) Generation of AMO-CFZ Ub-G67V-GFP cells AMO-CFZ cells were electroporated with a plasmid containing Ub-G76V-GFP [1] (obtained from Nico Dantuma; Addgene plasmid #11941) and subsequently cultured in the presence of selecting antibiotic G418 (500ng/ml, Gibco/Invitrogen, MA, USA). Subclones were obtained using MethoCult (StemCell Technologies, USA) and the clone with highest accumulation of fluorescence after BTZ treatment was chosen for further analysis. Assessment of cell viability Viability of cell lines was determined after 48h of treatment by MTS tetrazolium compound using CellTiter 96® AQueous One Solution) (Promega, WI, USA) according to manufactures protocol. PgP-Glo assay PgP-Glo assay (Promega, WI, USA) was performed according to manufacturer recommendations.  Figure 2 Comparison of dose–response of AMO-1 (sensitive) vs AMO-BTZ and AMO-CFZ (resistant) cells treated with PIs (BTZ and CFZ). (a) Residual activity of proteasome subunits visualized by activity-based probe labeling in intact cells after 1 h pulse treatment with indicated PIs. (b) Cell viability was measured after 48 hours of continuous treatment. Corresponding IC50 values are presented in Supplementary Table S2.  Figure 7 Sensitivity profile of ABCB1 inhibitors co-treatment with PIs used in the clinic or in clinical development in AMO-1, AMO-BTZ and AMO-CFZ cell lines. Dose–response curves of PI co-treated with NFV (10 μM) and LPV (10 μM). Corresponding IC50 values are presented in Supplementary Table S7.

[3] = system: T2, AMO-CFZ clone #1 (upregulated ABCB1); test: cells; design: species or system AMO-1, AMO-BTZ, AMO-CFZ and AMO-CFZ clones #1 and #7; cell viability, MTS tetrazolium (CellTiter 96 AQueous One Solution), continuous treatment; conditions: Homo sapiens, AMO1, 48 h; CFZ alone
Method: as §1

[4] = system: T2, AMO-CFZ clone #1 (upregulated ABCB1); test: cells; design: species or system AMO-1, AMO-BTZ, AMO-CFZ and AMO-CFZ clones #1 and #7; cell viability, MTS tetrazolium (CellTiter 96 AQueous One Solution), continuous treatment; conditions: Homo sapiens, AMO1, 48 h; CFZ alone; remark: listed apart in the source
Method: as §3

ABCB1 = ABCB1 (Homo sapiens, UniProt P08183); test: MitoTracker Green FM and MVB003 efflux (flow cytometry) in ABCB1-overexpressing AMO-CFZ cells
ABCB1, sequence (P08183 whole entry): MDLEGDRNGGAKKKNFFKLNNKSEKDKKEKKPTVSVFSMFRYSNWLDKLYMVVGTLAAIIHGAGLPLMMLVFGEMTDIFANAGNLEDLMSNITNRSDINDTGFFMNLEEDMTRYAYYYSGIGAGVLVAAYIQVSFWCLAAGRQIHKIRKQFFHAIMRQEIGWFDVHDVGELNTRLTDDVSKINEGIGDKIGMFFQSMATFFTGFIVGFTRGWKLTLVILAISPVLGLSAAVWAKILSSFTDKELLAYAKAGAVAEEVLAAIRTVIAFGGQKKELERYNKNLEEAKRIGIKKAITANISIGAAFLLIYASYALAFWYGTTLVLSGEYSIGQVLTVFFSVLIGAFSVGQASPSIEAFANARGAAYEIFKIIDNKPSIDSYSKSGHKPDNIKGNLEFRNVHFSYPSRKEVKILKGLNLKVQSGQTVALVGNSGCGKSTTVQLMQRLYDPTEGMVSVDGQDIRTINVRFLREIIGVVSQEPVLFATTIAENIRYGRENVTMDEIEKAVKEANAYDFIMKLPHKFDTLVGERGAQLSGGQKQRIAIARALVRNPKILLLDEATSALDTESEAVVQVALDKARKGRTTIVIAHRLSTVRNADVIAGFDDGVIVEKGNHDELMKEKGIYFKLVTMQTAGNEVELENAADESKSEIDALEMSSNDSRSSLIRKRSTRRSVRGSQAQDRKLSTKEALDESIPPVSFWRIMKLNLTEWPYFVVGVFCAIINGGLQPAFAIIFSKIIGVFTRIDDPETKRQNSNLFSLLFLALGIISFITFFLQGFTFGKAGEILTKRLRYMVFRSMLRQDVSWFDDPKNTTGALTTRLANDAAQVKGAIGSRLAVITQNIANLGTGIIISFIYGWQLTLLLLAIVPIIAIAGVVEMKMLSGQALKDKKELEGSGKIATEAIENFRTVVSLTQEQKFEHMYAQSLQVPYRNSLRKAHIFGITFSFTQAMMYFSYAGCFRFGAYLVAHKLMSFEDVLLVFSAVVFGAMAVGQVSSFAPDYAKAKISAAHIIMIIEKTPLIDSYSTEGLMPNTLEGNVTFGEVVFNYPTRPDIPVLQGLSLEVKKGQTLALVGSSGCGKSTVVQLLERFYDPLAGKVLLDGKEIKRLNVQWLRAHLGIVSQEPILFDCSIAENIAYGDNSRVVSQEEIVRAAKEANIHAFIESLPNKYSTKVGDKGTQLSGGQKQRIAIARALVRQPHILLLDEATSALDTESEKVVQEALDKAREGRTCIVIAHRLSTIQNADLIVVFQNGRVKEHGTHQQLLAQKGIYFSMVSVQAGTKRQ

Row | SMILES | pIC50 [1] | pIC50 [2] | IC50 (AMO-CFZ) | also measured
1 | CC(C)C[C@H](NC(=O)[C@H](Cc1ccccc1)NC(=O)c1cnccn1)B(O)O [BTZ, bortezomib] | 7.16 | 7.57 | 156 nM | pIC50 (AMO-1; read-out: BTZ): 8.20; pIC50 (AMO-BTZ; read-out: BTZ): 5.87; pIC50 (AMO-CFZ; read-out: BTZ): 7.05
2 | CC(C)C[C@H](NC(=O)[C@H](CCc1ccccc1)NC(=O)CN1CCOCC1)C(=O)N[C@@H](Cc1ccccc1)C(=O)N[C@@H](CC(C)C)C(=O)[C@@]1(C)CO1 [CFZ, carfilzomib] | 6.21 | 7.11 |  | pIC50 (AMO-1; read-out: CFZ): 8.32; IC50 [3]: 796 nM; pIC50 (AMO-BTZ; read-out: CFZ): 7.17; pIC50 (AMO-CFZ; read-out: CFZ): 6.05; IC50 [4]: 824 nM
3 | CC(C)C[C@H](NC(=O)[C@@H](NC(=O)c1cccc(-c2ccccc2)n1)[C@@H](C)O)B(O)O [Delanzomib] | 6.53 | 7.09 | 1040 nM | 
4 | CC(C)C[C@H](NC(=O)CNC(=O)c1cc(Cl)ccc1Cl)B(O)O [Ixazomib] | 6.16 | 6.46 | 1280 nM | 
5 | C[C@@]12OC(=O)[C@]1([C@@H](O)[C@@H]1C=CCCC1)NC(=O)[C@@H]2CCCl [Marizomib] | 7.21 | 7.48 |  | 
6 | COC[C@H](NC(=O)c1cnc(C)s1)C(=O)N[C@@H](COC)C(=O)N[C@@H](Cc1ccccc1)C(=O)[C@@]1(C)CO1 [Oprozomib] | 5.83 | 6.66 | 1320 nM | 
7 | Cc1[nH]c2ccccc2c1CCNCc1ccc(/C=C/C(=O)NO)cc1 [Panobinostat] | 6.66 | 7.31 |  | 
8 | COC(=O)[C@H]1[C@H]2C[C@@H]3c4[nH]c5cc(OC)ccc5c4CCN3C[C@H]2C[C@@H](OC(=O)c2cc(OC)c(OC)c(OC)c2)[C@@H]1OC [RSP, reserpine] |  |  |  | MitoTracker Green FM and MVB003 efflux (flow cytometry) in ABCB1-overexpressing (ABCB1): Addition of VPM or reserpine (RSP) in the micromolar range led to a sizable, dose-dependent increase in cellular fluorescence
